Results taken from US11708564B2 (priority 2017, dated 2023).

Tested on: active D-proline reductase
Test: Conversion of D-proline analog substrates by E. coli cells expressing active D-proline reductase (PrdA, PrdB, PrdH), TLC analysis
Type: biochemical, Peptoclostridium difficile 630
Conditions: substrate 10 mM, DTT 25 mM, 6 hours, E. coli BL21(DE3) cells OD 50 in 0.1 M phosphate buffer pH 8.0, TLC
Experimental: The obtained E. coli cells were adjusted to a final OD of 50, followed by centrifugation. After primary washing, E. coli cells were diluted with 1 mL of 0.1 M phosphate buffer (pH 8.0). Next, each 200 ul of the diluted samples was dispensed, and DTT (final concentration of 25 mM) and various substrates (final concentration of 10 mM, FIG. 11A) were added and allowed to react for 6 hours, followed by TLC analysis.
When cis-4-hydroxy-D-proline or trans-4-hydroxy-D-proline is subjected to the conversion reaction, 5-amino-4-hydroxypentanoic acid is produced.

SMILES | product formation on TLC after the conversion reaction | reaction rate of the conversion by D-proline reductase, compared with D-proline
O=C(O)[C@H]1CCN1 [D-azetidine-2-carboxylic acid] | GABA production was clearly observed on TLC | relatively low reaction rate, as compared with D-proline
O=C(O)[C@H]1C[C@@H](O)CN1 [cis-4-hydroxy-D-proline] | substrate reduction on TLC and newly formed TLC spot were observed | relatively low reaction rate, as compared with D-proline
O=C(O)[C@H]1C[C@H](O)CN1 [trans-4-hydroxy-D-proline] | substrate reduction on TLC and newly formed TLC spot were observed | relatively low reaction rate, as compared with D-proline
